Molecules are shown by their SMILES. Where two headings read alike, the source gives them in different places.

The target of this experiment is purified human COMT enzyme of the Val158 variant (membrane-bound MB-COMT) (Homo sapiens (Human), UniProt P21964). Put plainly: Esculetin or Fluorescence Polarization assay (MB-COMT). Type of experiment: biochemical. As for the experimental part: Assays utilized purified human COMT enzyme of the Val158 variant (membrane-bound MB-COMT or soluble S-COMT) containing a C-terminal 6 or 10-histidine tag.
In a typical experiment the COMT inhibitory activity of the compounds of the present invention was determined in accordance with the following experimental methods detailed below. The fluorescence assay was based on methylation of a substrate (6,7-dihydroxycoumarin or ‘esculetin’) by COMT to produce a highly fluorescent product (7-hydroxy-6-methoxycoumarin or ‘scopoletin’). The reaction requires the presence of magnesium ions and a methyl donor, in this case S-adenosylmethionine (SAM). […] Recombinant enzyme was diluted in assay buffer (100 mM Na2HPO4 pH 7.4, 1 mM DTT, 0.005% Tween-20) and 35 μL was added to assay wells containing 1 μL of compound. Preincubation of COMT enzyme and compound proceeded for 2 hours at room temperature. Enzyme assays were initiated with 5 uL of a mixture containing 40 μM SAM (USB catalog # US10601), 4 μM esculetin (substrate) and 40 mM MgCl2. The formation of product (seopoletin) was monitored over time by fluorescence (excitation 340 nm, emission 460 nm, no lag, 100 μs integration time, 5 flashes, top read) using a Tecan Safire^2 plate reader. Assays were monitored over time until a signal to background of 4 to 1 was achieved. Titration curves and IC50 values were calculated using standard procedures. […] In some cases, compounds were not preincubated with MB-COMT for 2 hours at room temperature prior to starting the enzyme assays.
To determine IC50 values in the fluorescence polarization assay, solutions of test compounds were prepared and preincubated with COMT enzyme as stated above. […] After 25 minutes incubation at room temperature, reactions were quenched with 5 μL 250 mM EDTA, […]. To quenched reactions, 20 μL of a preformed complex containing S-adenosyl-L-cysteine (SAC) TAMRA tracer (2 mM from Ana spec diluted 1:80,000) and a 1:20 dilution of anti-S-adenosyl-L-homocysteine antibody (mouse monoclonal from Abbott Homocysteine detection kit, catalog #7D29-20) was prepared in assay buffer 11 (Na2HPO4 pH 7.2). Prior to combining with quenched enzyme assays, the SAH antibody/SAC TAMRA tracer complex was preformed at room temperature for 30 minutes while protected from light. Therefore, the final concentration of the SAH antibody/SAC TAMRA mix was 1:60 and 1:240,000, respectively. […] Titration curves and IC50 values were calculated using standard protocols.
(In general: Polarisation of emitted light reports the rotation of a fluorescent probe.)

[1] abbreviates: Esculetin or Fluorescence Polarization assay, Val158 variant.

On to `Cn1c(-c2ccc(Cl)c(C(F)(F)F)c2)ncc(O)c1=O` [Example 1, 2-[4-chloro-3-(trifluoromethyl)phenyl]-5-hydroxy-3-methylpyrimidin-4(3H)-one], for which 180 nM corresponded to half-maximal inhibition under setting [1] (IC50).

For `COc1ccc(Oc2cccc(-c3ncc(O)c(=O)n3C)c2)cc1` [Example 5, 5-hydroxy-2-[3-(4-methoxyphenoxy)phenyl]-3-methylpyrimidin-4(3H)-one], the IC50 (commonly the midpoint of a concentration-inhibition curve) worked out at 93 nM.

`O=c1[nH]c(-c2ccc(C(F)(F)F)cc2)ncc1O` [Example 6, 5-Hydroxy-2-(4-trifluoromethyl-phenyl)-3H-pyrimidin-4-one] yielded a concentration for half-maximal inhibition (IC50) of 210 nM.

Regarding `O=c1[nH]c(-c2cccc(C#Cc3ccccc3)c2)ncc1O` [Example 8], under setting [1], the IC50 amounted to 590 nM.

The record behind these values is patent publication US9260413B2, “Inhibitors of catechol O-methyl transferase and their use in the treatment of psychotic disorders” (Merck Sharp & Dohme Corp., priority 2013, dated 2016).
